Measurements from ChEMBL document CHEMBL3507680, “University of Dundee, Gates Library screen for HepG2 cell viability”.

Assay: Human HepG2 cell viability assay in 384 well format
Assay type: toxicity, cell-based
Design: dose 125 nL, time 70.5 hour; cytotoxicity at 70.5 h: concentration not given beside the values
Conditions: HepG2 cells, read-out: Inhibition

`CCc1ccc(C2CC(=O)Nc3c2c(=O)n(C)c2ncnn32)cc1` (centres undefined) showed a cytotoxicity at 70.5 h of -2.98%.

In the case of `COc1nn(C)c2c1CCCN(S(=O)(=O)c1cccc(C)c1)C2`, the cytotoxicity at 70.5 h is reported as -4.74%.

`COc1nn(C)c2c1CCCN(S(=O)(=O)c1ccccc1F)C2` showed a cytotoxicity at 70.5 h of -1.52%.

In the case of `c1c(CN2CCCCC2)nc2n1CCN(CC1CC1)C2`, the cytotoxicity at 70.5 h is reported as 0.696%.

`CC(C)CN1CCNC(=O)C12CCN(C(=O)c1ccccn1)CC2` gave a cytotoxicity at 70.5 h of 9.35%.

`CN(C)C(=O)N1CCN(C(=O)c2ccc(Cl)cc2)CC2(CNC(=O)C2)C1` (centres undefined) showed a cytotoxicity at 70.5 h of 11%.

With `CNC(=O)N1CCc2nc(C(=O)Nc3cccnc3)sc2CC1` the cytotoxicity at 70.5 h was -3.13%.

In the case of `CC(C)C(=O)N1CCC12CCCN(C(=O)c1ccnnc1)C2` (centres undefined), the cytotoxicity at 70.5 h is reported as -6.79%.

Molecule `O=C(c1c2c(NCC3CC3)ncnc2n2ccccc12)N1CCCC1` has a cytotoxicity at 70.5 h of 0.851%.

For `O=C(c1c2c(N3CCOCC3)ncnc2n2ccccc12)N1CCCC1`, the cytotoxicity at 70.5 h was -3.03%.

In the case of `CS(=O)(=O)N1CCCCC12CCN(c1nncs1)CC2`, the cytotoxicity at 70.5 h is reported as -1.19%.

`CN(C)C(=O)N1CCN(C(=O)c2ccccc2)CC2(CNC(=O)C2)C1` (centres undefined) gave a cytotoxicity at 70.5 h of -1.67%.

In the case of `O=C(c1c2c(NCC3CC3)ncnc2n2ccccc12)N1CCOCC1`, the cytotoxicity at 70.5 h is reported as -1.89%.

With `CCn1c(=O)c2sccc2n(CC(=O)Nc2cccc(Cl)c2)c1=O` the cytotoxicity at 70.5 h was 8.59%.

Work on `O=c1[nH]nc2c(N3CCC(NC4CCOCC4)CC3)nccn12` yielded a cytotoxicity at 70.5 h of -11.2%.

Work on `CC1CCN(c2nccn3c(=O)[nH]nc23)CC1` yielded a cytotoxicity at 70.5 h of -3.79%.

Work on `CC1CCCN(c2nccn3c(=O)[nH]nc23)C1` (centres undefined) yielded a cytotoxicity at 70.5 h of -7.92%.

For `CCOCCCNC(=O)CN(c1cccc(F)c1)S(C)(=O)=O`, the cytotoxicity at 70.5 h was -21.2%.

`COc1cccc(NC(=O)CC2Cn3ncnc3NC2=O)c1` (centres undefined) showed a cytotoxicity at 70.5 h of -10.6%.

`CCSC1=Nc2c(cnn2-c2ccc(Cl)cc2)C2=NCCCN12` gave a cytotoxicity at 70.5 h of -7.4%.

Work on `Cn1c(=O)c2c(n3ncnc13)NC(=O)CC2c1cccc(Br)c1` (centres undefined) yielded a cytotoxicity at 70.5 h of -9.38%.

Molecule `O=C1CC(c2ccc3c(c2)OCO3)c2cn[nH]c2N1` (centres undefined) has a cytotoxicity at 70.5 h of -11.7%.

Molecule `CCCOc1ccc(C2SCC(=O)Nc3c2c(=O)[nH]n3C(C)C)cc1` (centres undefined) has a cytotoxicity at 70.5 h of -18.7%.

With `O=C(O)CCNC(=O)Cc1csc(-c2cccc(Cl)c2)n1` the cytotoxicity at 70.5 h was -14%.

Molecule `CSC1=Nc2c(cnn2-c2cccc(Cl)c2)C2=NCCCN12` has a cytotoxicity at 70.5 h of -12%.

For `Cn1c(=O)c2c(n3ncnc13)NC(=O)CC2c1ccc(F)cc1` (centres undefined), the cytotoxicity at 70.5 h was -11.1%.

`CSC1=Nc2c(cnn2-c2ccc(Cl)cc2)C2=NCCCN12` showed a cytotoxicity at 70.5 h of -7.03%.

Molecule `COc1cccc(C2CC(=O)Nc3c2c(=O)n(C)c2ncnn32)c1` (centres undefined) has a cytotoxicity at 70.5 h of 16.7%.

`Cn1c(=O)[nH]c(=O)n2c(CC(=O)Nc3c(Cl)cccc3Cl)cnc12` gave a cytotoxicity at 70.5 h of -14.2%.

In the case of `NCCc1c(-c2ccc(F)cc2)[nH][nH]c1=O`, the cytotoxicity at 70.5 h is reported as -3.38%.

`CN1CCS(=O)(=O)[C@@H]2CCN(C(=O)c3ccccc3)CC[C@@H]21` gave a cytotoxicity at 70.5 h of -9.02%.

Molecule `CC(C)OCc1nn(C)c2c1CCN(Cc1ccco1)C2` has a cytotoxicity at 70.5 h of -7.18%.

Work on `CCCS(=O)(=O)N1Cc2nccn2CC(CN2CCCC2)C1` (centres undefined) yielded a cytotoxicity at 70.5 h of -4.76%.

In the case of `COc1ccc(CC(=O)N2CC[C@@H]3[C@H](CC2)N(C)CCS3(=O)=O)cc1`, the cytotoxicity at 70.5 h is reported as -8.6%.

Work on `CN(C)C(=O)[C@H]1C[C@H]2OCC[C@H]2N(CCOc2ccc(Cl)cc2)C1` yielded a cytotoxicity at 70.5 h of -3.17%.

Work on `CC(C)n1nc(Cn2cccn2)c2c1CN(C1CCOCC1)C2` yielded a cytotoxicity at 70.5 h of -4.7%.

With `CC(C)n1nc(Cn2cccn2)c2c1CN(C1CCOC1)C2` (centres undefined) the cytotoxicity at 70.5 h was -4.66%.

For `CC(C)n1nc(Cn2cccn2)c2c1CN(CC1CCOC1)C2` (centres undefined), the cytotoxicity at 70.5 h was -4.31%.

With `CC(C)n1nc(Cn2cccc2)c2c1CN(C1CCOCC1)C2` the cytotoxicity at 70.5 h was 0.409%.

For `c1c(CN2CCCC2)nc2n1CCN(CC1CC1)C2`, the cytotoxicity at 70.5 h was -4.19%.

For `Cc1cc(CN2C[C@H](N3CCOCC3)[C@@H]3OCCC[C@@H]32)oc1C`, the cytotoxicity at 70.5 h was -7.89%.

Work on `c1snnc1CN1C[C@H]2CCC[C@@H](CN3CCOCC3)[C@H]2C1` yielded a cytotoxicity at 70.5 h of -7.77%.

In the case of `CN(Cc1ccncc1)C1COC2(CCN(c3ncc(F)cn3)CC2)C1` (centres undefined), the cytotoxicity at 70.5 h is reported as -1.66%.

With `c1cnc(N2CC[C@@H]3CN(Cc4ccncc4)CCO[C@@H]3C2)nc1` the cytotoxicity at 70.5 h was -2.03%.
